Data reported in patent publication US20100311741A1, “Bicyclosulfonyl Acid (BCSA) Compounds and Their Use as Therapeutic Agents” (INHIBOX LTD., priority 2007, published 2010).

Legend:
HDAC (HeLa cell extract) = experiment: Selectivity assay: HDAC activity, fluorescent assay (Fluor de Lys); assay type: biochemical; settings: single concentration @100 (μM)
Experimental: Alternatively, the activity of the compounds as HDAC inhibitors was determined using a commercially available fluorescent assay kit (Fluor de Lys™, BioMol Research Labs, Inc., Plymouth Meeting, USA). HeLa extract was incubated for 1 hour at 37° C. in assay buffer (25 mM HEPES, 137 mM NaCl, 2.7 mM KCl, 1 mM MgCl2, pH 8.0) with 15 μM acetylated substrate in the presence of test compound (HDAC inhibitor). The extent of deacetylation was determined by the addition of 50 μL of a 1-in-500 dilution of Developer, and subsequent measurement of the fluorescence (excitation 355 nm, emission 460 nm), according to the instructions provided with the kit.
The HeLa cell extract was made from HeLa cells (ATCC Ref. No. CCL-2) by freeze-thawing three times in 60 mM Tris.HCl, pH 8.0, 450 mM NaCl, 30% glycerol. Two cell volumes of extraction buffer were used, and particulate material was centrifuged out (20,800 g, 4° C., 10 minutes). The supernatant extract having deacetylase activity was aliquoted and frozen for storage.
Percent activity (% activity) for each test compound was calculated as:
% activity={(S^C−B)/(S^o−B)}×100
wherein S^C denotes signal measured in the presence of enzyme and the compound being tested, S^o denotes signal measured in the presence of enzyme but in the absence of the compound being tested, and B denotes the background signal measured in the absence of both enzyme and compound being tested. The IC50 corresponds to the concentration which achieves 50% activity.

MMP-1 = target: T1, MMP-1 (Homo sapiens, UniProt P03956); experiment: Matrix metalloprotease panel, single concentration; assay type: biochemical
T1 sequence (P03956 100-469): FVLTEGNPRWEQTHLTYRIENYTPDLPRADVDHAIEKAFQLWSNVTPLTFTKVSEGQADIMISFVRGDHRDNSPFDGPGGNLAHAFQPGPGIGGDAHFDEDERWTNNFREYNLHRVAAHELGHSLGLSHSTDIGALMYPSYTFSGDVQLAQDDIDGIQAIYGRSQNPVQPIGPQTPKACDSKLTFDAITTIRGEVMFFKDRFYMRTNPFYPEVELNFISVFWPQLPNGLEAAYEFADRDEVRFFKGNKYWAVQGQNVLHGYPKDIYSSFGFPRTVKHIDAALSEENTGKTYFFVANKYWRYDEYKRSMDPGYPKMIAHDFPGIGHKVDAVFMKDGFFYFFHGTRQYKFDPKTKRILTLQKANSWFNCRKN
Experimental: (§1) Several compounds were tested at a single concentration against a panel of matrix metalloproteases including angiotensin converting enzyme (ACE) and the percentage inhibition determined.

MMP-10 = MMP-10 (Homo sapiens, UniProt P09238); experiment: Matrix metalloprotease panel, single concentration; assay type: biochemical
Experimental: as §1

MMP-12 = MMP-12 (Homo sapiens, UniProt P39900); experiment: Matrix metalloprotease panel, single concentration; assay type: biochemical
Experimental: as §1

MMP-13 = MMP-13 (Homo sapiens, UniProt P45452); experiment: Matrix metalloprotease panel, single concentration; assay type: biochemical
Experimental: as §1

MMP-14 = MMP-14 (Homo sapiens, UniProt P50281); experiment: Matrix metalloprotease panel, single concentration; assay type: biochemical
Experimental: as §1

MMP-2 = target: T2, MMP-2 (Homo sapiens, UniProt P08253); experiment: Matrix metalloprotease panel, single concentration; assay type: biochemical
T2 sequence (P08253 110-660): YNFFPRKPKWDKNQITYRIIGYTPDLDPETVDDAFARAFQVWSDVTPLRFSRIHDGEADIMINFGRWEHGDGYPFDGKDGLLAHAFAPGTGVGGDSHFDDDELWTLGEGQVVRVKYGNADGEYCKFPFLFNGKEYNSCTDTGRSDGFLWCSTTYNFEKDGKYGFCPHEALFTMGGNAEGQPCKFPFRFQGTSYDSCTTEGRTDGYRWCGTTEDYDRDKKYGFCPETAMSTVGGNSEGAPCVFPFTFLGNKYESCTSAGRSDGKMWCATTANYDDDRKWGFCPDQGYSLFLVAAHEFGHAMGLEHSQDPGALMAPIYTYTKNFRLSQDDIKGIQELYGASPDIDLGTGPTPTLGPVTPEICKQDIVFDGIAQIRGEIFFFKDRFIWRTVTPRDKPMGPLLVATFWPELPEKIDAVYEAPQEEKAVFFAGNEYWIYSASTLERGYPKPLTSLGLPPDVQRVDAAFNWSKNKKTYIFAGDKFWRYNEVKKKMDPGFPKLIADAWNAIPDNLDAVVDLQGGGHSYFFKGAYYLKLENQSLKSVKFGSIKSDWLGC
Experimental: as §1

MMP-3 = MMP-3 (Homo sapiens, UniProt P08254); experiment: Matrix metalloprotease panel, single concentration; assay type: biochemical
Experimental: as §1

MMP-7 = target: T3, MMP-7 (Homo sapiens, UniProt P09237); experiment: Matrix metalloprotease panel, single concentration; assay type: biochemical
T3 sequence (P09237 95-267): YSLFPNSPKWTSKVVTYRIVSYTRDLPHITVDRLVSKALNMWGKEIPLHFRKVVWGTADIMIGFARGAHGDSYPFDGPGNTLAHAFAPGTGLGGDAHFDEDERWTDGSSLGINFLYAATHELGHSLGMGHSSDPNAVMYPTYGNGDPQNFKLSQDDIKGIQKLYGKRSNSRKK
Experimental: as §1

MMP-8 = MMP-8 (Homo sapiens, UniProt P22894); experiment: Matrix metalloprotease panel, single concentration; assay type: biochemical
Experimental: as §1

MMP-9 = MMP-9 (Homo sapiens, UniProt P14780); experiment: Matrix metalloprotease panel, single concentration; assay type: biochemical
Experimental: as §1

[1] = target: angiotensin converting enzyme (ACE) (Homo sapiens, UniProt P12821); experiment: Matrix metalloprotease panel, single concentration; assay type: biochemical
Experimental: as §1

Sequence of MMP-12 (P39900 106-470, species assumed): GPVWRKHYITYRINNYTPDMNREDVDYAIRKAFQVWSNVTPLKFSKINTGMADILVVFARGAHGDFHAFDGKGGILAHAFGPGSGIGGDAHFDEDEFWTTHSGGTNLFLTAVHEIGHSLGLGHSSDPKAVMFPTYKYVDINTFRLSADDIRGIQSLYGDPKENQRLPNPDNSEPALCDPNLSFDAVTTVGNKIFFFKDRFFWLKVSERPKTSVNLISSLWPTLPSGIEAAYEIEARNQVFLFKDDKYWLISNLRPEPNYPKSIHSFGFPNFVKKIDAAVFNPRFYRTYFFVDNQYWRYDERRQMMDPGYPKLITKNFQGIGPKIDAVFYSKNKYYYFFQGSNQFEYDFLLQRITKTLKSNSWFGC
Sequence of angiotensin converting enzyme (ACE) (P12821 30-1306, species assumed): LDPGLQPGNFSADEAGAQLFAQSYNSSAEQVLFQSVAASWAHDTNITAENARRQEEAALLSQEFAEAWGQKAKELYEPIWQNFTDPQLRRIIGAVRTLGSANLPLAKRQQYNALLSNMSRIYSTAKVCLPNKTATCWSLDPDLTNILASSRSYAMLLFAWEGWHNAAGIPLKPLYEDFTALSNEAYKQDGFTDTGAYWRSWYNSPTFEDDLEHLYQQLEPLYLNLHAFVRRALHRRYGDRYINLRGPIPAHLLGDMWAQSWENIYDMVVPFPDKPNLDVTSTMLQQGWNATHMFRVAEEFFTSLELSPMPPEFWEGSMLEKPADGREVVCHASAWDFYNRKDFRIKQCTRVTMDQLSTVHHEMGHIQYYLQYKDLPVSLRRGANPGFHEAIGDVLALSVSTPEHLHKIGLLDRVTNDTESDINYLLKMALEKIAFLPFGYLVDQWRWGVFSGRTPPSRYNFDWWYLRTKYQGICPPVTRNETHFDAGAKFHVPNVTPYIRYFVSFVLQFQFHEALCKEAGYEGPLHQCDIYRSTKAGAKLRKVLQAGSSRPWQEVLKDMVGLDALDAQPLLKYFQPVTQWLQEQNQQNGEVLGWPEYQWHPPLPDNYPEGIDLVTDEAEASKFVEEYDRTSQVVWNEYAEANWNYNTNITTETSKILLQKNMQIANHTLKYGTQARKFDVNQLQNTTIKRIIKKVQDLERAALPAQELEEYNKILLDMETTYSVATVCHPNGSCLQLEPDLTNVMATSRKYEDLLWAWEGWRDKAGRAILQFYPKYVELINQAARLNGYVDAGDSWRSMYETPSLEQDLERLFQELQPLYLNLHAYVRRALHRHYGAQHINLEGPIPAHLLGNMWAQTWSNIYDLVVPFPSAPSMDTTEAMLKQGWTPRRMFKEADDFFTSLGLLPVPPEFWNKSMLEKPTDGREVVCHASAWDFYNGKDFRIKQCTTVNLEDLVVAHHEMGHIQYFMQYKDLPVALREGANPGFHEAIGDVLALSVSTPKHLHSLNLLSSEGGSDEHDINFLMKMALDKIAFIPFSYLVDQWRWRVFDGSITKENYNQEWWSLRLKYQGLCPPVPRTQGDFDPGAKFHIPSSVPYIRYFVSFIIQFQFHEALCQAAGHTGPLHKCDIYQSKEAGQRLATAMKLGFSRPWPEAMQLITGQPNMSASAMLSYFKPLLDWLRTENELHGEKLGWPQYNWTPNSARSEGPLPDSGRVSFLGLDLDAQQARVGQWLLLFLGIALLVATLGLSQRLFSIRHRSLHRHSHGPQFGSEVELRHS
Sequence of MMP-8 (P22894 101-467, species assumed): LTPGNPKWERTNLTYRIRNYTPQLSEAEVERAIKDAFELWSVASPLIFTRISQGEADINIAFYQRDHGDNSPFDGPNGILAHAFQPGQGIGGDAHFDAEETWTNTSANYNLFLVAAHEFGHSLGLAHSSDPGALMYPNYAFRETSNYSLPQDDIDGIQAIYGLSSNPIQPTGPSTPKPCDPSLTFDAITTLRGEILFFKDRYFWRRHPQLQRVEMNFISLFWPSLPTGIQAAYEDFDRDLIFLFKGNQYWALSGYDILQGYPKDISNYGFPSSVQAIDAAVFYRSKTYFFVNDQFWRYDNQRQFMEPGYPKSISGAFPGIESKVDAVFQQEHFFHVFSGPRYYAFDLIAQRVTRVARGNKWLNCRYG
Sequence of MMP-10 (P09238 99-476, species assumed): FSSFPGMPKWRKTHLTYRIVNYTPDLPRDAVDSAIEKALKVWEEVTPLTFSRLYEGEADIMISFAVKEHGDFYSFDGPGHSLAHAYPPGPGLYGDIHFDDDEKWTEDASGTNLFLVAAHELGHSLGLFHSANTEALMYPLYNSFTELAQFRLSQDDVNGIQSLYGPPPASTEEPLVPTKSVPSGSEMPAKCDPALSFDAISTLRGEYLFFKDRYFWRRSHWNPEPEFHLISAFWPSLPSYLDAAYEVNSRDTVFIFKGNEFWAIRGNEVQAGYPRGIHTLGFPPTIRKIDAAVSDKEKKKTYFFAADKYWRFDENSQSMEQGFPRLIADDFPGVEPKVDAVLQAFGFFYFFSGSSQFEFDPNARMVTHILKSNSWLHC
Sequence of MMP-3 (P08254 100-477, species assumed): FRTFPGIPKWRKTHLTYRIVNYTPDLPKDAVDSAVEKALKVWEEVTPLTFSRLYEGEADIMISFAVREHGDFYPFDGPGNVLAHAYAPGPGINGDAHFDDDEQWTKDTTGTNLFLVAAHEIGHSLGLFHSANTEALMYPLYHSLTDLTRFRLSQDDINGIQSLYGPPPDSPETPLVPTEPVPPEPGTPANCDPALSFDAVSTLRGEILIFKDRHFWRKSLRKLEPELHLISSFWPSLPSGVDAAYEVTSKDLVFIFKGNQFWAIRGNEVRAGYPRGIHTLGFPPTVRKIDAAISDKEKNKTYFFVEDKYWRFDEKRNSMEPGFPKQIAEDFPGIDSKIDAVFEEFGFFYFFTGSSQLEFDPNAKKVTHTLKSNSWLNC
Sequence of MMP-9 (P14780 94-707, species assumed): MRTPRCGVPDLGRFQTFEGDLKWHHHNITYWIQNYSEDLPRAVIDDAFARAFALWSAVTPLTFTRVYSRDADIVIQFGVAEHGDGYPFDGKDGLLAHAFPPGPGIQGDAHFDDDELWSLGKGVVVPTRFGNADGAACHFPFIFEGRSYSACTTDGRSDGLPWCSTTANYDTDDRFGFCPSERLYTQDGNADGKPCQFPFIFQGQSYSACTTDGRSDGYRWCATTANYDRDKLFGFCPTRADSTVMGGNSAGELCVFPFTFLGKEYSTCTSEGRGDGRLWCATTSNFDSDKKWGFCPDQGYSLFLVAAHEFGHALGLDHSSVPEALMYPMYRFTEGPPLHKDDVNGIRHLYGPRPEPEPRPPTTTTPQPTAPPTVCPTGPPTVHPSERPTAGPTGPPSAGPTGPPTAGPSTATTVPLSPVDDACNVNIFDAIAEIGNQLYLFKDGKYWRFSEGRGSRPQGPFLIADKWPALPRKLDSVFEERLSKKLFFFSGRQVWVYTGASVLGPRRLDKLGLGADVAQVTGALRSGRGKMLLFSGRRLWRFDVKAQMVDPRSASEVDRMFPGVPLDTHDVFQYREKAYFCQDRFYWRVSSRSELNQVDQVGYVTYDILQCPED

inhibition at 5 µM (MMP-1) | inhibition at 5 µM (MMP-10) | inhibition at 5 µM (MMP-12) | inhibition at 5 µM (MMP-13) | inhibition at 5 µM (MMP-14) | inhibition at 5 µM (MMP-2) | inhibition at 5 µM (MMP-3) | inhibition at 5 µM (MMP-7) | inhibition at 5 µM (MMP-8) | inhibition at 5 µM (MMP-9) | inhibition at 5 µM [1] | melting point | Compound | Av. HDAC Inhibition, % @100 (HDAC (HeLa cell extract))
0% | 0% | 56% | 24% | 2% | 19% | 1% | 0% | 30% | 19% | 6% |  | O=C(CC1c2ccccc2S(=O)(=O)N1c1ccccc1)NO (stereo not shown) [IX-001] | 10%@100
-4% | 6% | 37% | -12% | 0% | 10% | 11% | -5% | 21% | -2% | -8% |  | CC#CCOc1ccc(N2C(CC(=O)NO)c3ccccc3S2(=O)=O)cc1 (stereo not shown) [IX-045] | 38%@100
6% | 9% | 49% | -10% | 4% | -3% | 34% | 31% | 13% | -8% | -4% | 195 to 197 °C | Cc1cc(COc2ccc(N3C(CC(=O)NO)c4ccccc4S3(=O)=O)cc2)c2ccccc2n1 (stereo not shown) [IX-048] | 19%@100
